For 14 compounds, IC50 results are on record in BindingDB's records for doi:10.1016/S0960-894X(01)80506-0 (n/a, 1994).

As a reminder, the pIC50 is −log10 of the IC50, conventionally taken in molar units. A lower pIC50 goes with a high IC50.

Assay [1] addresses Beta-lactamase TEM (Escherichia coli, UniProt P62593). The experiment in a line: Concentration required for its inhibitory activity against Escherichia coli JT4(TEM1) class A beta-lactamase.
Assay [2] addresses Beta-lactamase (Pseudomonas aeruginosa (strain ATCC 15692 / DSM 22644 / CIP 104116 / JCM 14847 / LMG 12228 / 1C / PRS 101 / PAO1), UniProt P24735). The experiment in a line: Concentration required for its inhibitory activity against Pseudomonas aeruginosa class C beta-lactamase.
In assay [3] the target is Beta-lactamase (Enterobacter cloacae, UniProt P05364). The experiment in a line: Concentration required for its inhibitory activity against Enterobacter cloacae P99 class C beta-lactamase.
Assay [4] addresses T1, Beta-lactamase (Proteus mirabilis, UniProt P30897).
T1 sequence (P30897 whole entry): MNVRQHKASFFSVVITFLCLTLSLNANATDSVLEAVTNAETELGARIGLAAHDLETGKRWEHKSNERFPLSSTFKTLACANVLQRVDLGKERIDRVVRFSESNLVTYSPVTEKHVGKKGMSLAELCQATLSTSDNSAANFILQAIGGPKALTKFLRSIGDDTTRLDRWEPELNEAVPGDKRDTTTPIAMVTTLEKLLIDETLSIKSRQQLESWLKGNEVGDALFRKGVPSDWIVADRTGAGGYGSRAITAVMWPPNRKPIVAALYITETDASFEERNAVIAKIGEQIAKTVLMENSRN
The experiment in a line: Concentration required for its inhibitory activity against Proteus mirabilis C889 class A beta-lactamase.

For assay [5], the target named is T2, Beta-lactamase (Escherichia coli, UniProt Q2V0Y6).
T2 sequence (Q2V0Y6 whole entry): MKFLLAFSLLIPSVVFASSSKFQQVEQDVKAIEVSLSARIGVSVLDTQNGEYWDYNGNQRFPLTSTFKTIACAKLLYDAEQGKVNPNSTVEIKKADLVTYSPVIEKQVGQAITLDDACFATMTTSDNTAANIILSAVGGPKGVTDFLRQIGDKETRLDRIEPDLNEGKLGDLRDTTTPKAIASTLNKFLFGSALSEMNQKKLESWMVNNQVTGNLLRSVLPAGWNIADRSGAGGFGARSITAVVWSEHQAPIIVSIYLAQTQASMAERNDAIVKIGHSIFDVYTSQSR
The experiment in a line: Concentration required for its inhibitory activity against Escherichia coli K12(PSE4) class A beta-lactamase.

Assay [6] concerns the target Beta-lactamase OXA-1 (Escherichia coli, UniProt P13661). The experiment in a line: Concentration required for its inhibitory activity against Escherichia coli K12(OXA1) class D beta-lactamase.

pIC50: −log10 of the molar value. Some results are limits rather than exact numbers.

Sequence of Beta-lactamase OXA-1 (P13661 whole entry): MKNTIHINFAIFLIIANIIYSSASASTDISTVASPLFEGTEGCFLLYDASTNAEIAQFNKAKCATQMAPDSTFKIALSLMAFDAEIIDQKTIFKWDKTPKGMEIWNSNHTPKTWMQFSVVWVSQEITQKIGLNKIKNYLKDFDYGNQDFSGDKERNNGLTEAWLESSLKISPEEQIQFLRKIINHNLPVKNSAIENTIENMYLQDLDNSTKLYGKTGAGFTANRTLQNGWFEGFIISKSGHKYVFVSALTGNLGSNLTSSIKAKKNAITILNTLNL
Sequence of Beta-lactamase TEM (P62593 whole entry): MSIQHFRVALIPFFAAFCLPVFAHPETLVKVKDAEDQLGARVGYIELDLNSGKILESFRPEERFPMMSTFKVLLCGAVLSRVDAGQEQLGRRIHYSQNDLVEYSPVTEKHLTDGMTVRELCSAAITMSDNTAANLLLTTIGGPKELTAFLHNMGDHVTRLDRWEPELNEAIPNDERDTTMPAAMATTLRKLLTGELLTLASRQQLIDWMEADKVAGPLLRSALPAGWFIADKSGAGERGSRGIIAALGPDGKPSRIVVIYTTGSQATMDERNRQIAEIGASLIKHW
Sequence of Beta-lactamase (Pseudomonas aeruginosa (strain ATCC 15692 / DSM 22644 / CIP 104116 / JCM 14847 / LMG 12228 / 1C / PRS 101 / PAO1), UniProt P24735) (P24735 whole entry): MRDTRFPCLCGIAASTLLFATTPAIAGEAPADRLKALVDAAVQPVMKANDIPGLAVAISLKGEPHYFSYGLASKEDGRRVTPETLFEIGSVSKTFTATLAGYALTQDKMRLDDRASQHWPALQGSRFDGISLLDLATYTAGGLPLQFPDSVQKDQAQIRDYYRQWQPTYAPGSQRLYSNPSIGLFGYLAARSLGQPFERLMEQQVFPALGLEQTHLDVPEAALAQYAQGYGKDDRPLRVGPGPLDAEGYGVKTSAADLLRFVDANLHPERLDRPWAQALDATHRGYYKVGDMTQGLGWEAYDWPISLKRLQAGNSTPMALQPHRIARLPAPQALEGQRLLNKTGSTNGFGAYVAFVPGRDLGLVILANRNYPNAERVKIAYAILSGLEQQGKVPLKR
Sequence of Beta-lactamase (Enterobacter cloacae, UniProt P05364) (P05364 whole entry): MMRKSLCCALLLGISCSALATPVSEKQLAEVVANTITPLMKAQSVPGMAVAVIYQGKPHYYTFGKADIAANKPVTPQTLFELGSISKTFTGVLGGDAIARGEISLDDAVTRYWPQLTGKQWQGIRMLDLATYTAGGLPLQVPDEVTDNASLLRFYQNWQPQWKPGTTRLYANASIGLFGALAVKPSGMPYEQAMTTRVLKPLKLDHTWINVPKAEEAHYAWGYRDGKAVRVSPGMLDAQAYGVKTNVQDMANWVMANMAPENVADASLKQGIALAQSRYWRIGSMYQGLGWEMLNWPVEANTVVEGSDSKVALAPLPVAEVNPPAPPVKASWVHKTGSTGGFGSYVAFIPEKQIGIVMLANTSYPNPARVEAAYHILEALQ

Take `CC(C)CCCCCCCCCCCCCc1cccc(O)c1C(=O)O`: the pIC50 in assay [1] is 4.57; in assay [2] it was 4.36; in assay [3], 4.61.

Consider `CCCCCCCCc1cccc(O)c1C(=O)O`, for which the pIC50 was 4.81 in assay [4] and 4.19 in assay [5].

For the compound `CCCCCCCCCCCCCCCc1cccc(O)c1` [3-pentadecylphenol], the results for the pIC50 in assay [3] and in assay [5] were 4.63 and 4.18, respectively.

Take `O=C(O)[C@H]1/C(=C/CO)O[C@@H]2CC(=O)N21` [antibiotic MM 14151]: the negative-log IC50 (pIC50) in assay [6] was 5.76.

Regarding `CCCCCCCCCCCCCCCc1cccc(O)c1O`, the negative logarithm of the IC50 (pIC50) in assay [3] is 4.04.

`CCCCCCCCCCc1ccccc1C(=O)O` showed a negative-log IC50 (pIC50) in assay [1] of 4.16.

Regarding `CCCCCCCCCCCCCCCCCc1cccc(O)c1C(=O)O`, the negative-log IC50 (pIC50) in assay [4] was 4.66; in assay [1] it was 5.30; in assay [2] it was 4.62; in assay [3], 5.58; in assay [6], 4.11; in assay [5] it was 5.73.

Regarding `CCCCCCCCCCCCCCCc1cccc(OC)c1C(=O)O`, the pIC50 was 4.22 in assay [4]; 5.66 in assay [1]; 4.52 in assay [2]; 5.16 in assay [3]; below 4.04 in assay [6]; 5.78 in assay [5].

Regarding `CC/C=C\C/C=C\C/C=C\CCCCCCCc1cccc(O)c1C(=O)O`, the negative logarithm of the IC50 (pIC50) in assay [1] is 4.87; in assay [3], 4.34; in assay [5], 4.57.

In the case of `CCCCCCCCCCc1cccc(O)c1O`, the pIC50 in assay [3] was 4.08.

In assay [1], `CCCCCCCCCCc1cccc(O)c1C(=O)O` gave a pIC50 of 4.37.

As for `CCCCCCCCCCc1cccc(O)c1`, the pIC50 is 5.09 in assay [1], 4.72 in assay [3] and 4.76 in assay [5].

Regarding `CCC(C)CCCCCCCCCCCCc1cccc(O)c1C(=O)O` (centres undefined), the pIC50 in assay [1] was 4.56; in assay [2] it was 4.00; in assay [3], 4.07.

As for `C=CC/C=C\C/C=C\CCCCCCCc1cccc(O)c1C(=O)O` [6-[8(Z),11(Z),14-pentadecatrienyl]salicylic acid], the pIC50 in assay [4] is 4.04; in assay [1], 5.63; in assay [2], 4.68; in assay [3], 5.39; in assay [6], 4.14; in assay [5] it was 5.49.
